Drawing on ChEMBL document CHEMBL1158308, “Three new adjacent bis-tetrahydrofuran acetogenins with four hydroxyl groups from Asimina triloba” (J Nat Prod, 1996), this text covers LC50, ED50 and EC50 for ten compounds.

≈ marks a conversion by molar mass, not a printed value.

The test system of data set [1] is Artemia salina. Briefly: Toxicity to Artemia salina. Format: organism-based. The conditions noted are these: in vivo.
The test system of data set [2] is A549. The data set is described as follows: Cytotoxicity against human A549 cells after 7 days by MTT assay. Format: functional. The conditions noted are these: for EC50: Homo sapiens, A549, 168 h, read-out: ED50 (the source's name).
Data set [3] deals with MCF7. The data set is described as follows: Cytotoxicity against human MCF7 cells after 7 days by MTT assay. Format: functional. Conditions: for EC50: Homo sapiens, MCF7, 168 h, read-out: ED50 (the source's name).
For data set [4], the system named is HT-29. The data set is described as follows: Cytotoxicity against human HT29 cells after 7 days by MTT assay. Format: functional. The conditions noted are these: for EC50: Homo sapiens, HT-29, 168 h, read-out: ED50 (the source's name).
For data set [5], the system named is A498. The data set is described as follows: Cytotoxicity against human A498 cells after 7 days by MTT assay. Format: functional. Conditions: A498, 168 h, read-out: ED50 (the source's name).
The test system of data set [6] is PC-3. The data set is described as follows: Cytotoxicity against human PC3 cells after 7 days by MTT assay. The conditions noted are these: PC-3, 168 h, read-out: ED50 (the source's name). Format: functional.
Data set [7] has as its system MIA PaCa-2. The data set is described as follows: Cytotoxicity against human MIAPaCa2 cells after 7 days by MTT assay. Format: functional. The conditions noted are these: MIA PaCa-2, 168 h, read-out: ED50 (the source's name).

As for `CCCCCCCCCC[C@@H](O)[C@H]1CC[C@@H]([C@H]2CC[C@H]([C@H](O)CCCC[C@H](O)CCCCC[C@@H](O)CC3=C[C@H](C)OC3=O)O2)O1`, the LC50 in data set [1] was 2.6 ×10⁻¹ ppm. In addition, the ED50 is listed as 1 ×10⁻⁸ ug/ml in data set [2] and 1.88 ×10⁻⁸ ug/ml in data set [3]. The EC50 in data set [4] amounted to 1.39 µg/mL (≈ 2.18 µM); in data set [5], 0.01 µg/mL (≈ 0.0157 µM); in data set [6] it was 0.378 µg/mL (≈ 0.592 µM); in data set [7] it was 0.196 µg/mL (≈ 0.307 µM).
In data set [1], `CCCCCCCCCC[C@@H](O)[C@H]1CC[C@H]([C@H]2CC[C@H]([C@H](O)CCCCCCCCCC[C@@H](O)CC3=C[C@H](C)OC3=O)O2)O1` [ASIMICIN] yielded an LC50 of 2.7 ×10⁻² ppm.
`CC[C@H](O)[C@H](O)CCCCCC[C@H](O)[C@H]1CC[C@H]([C@H]2CC[C@H]([C@H](O)CCCCCCCCCCCCC3=C[C@H](C)OC3=O)O2)O1` [BULLATETROCIN] came in with an LC50 in data set [1] of 3.1 ×10⁻¹ ppm. Also, the EC50 was 0.352 µg/mL (≈ 0.551 µM) in data set [2]; 0.497 µg/mL (≈ 0.778 µM) in data set [3]; above 1 µg/mL in data set [5]; above 1 µg/mL in data set [6]; above 1 µg/mL in data set [7]. The ED50 in data set [4] is 3.32 ×10⁻⁵ ug/ml.
In data set [1], `CCCCCCCCCC[C@@H](O)[C@H]1CC[C@@H]([C@H]2CC[C@H]([C@H](O)CCC[C@H](O)CCCCCCCC3=C[C@H](C)OC3=O)O2)O1` [TRILOBIN] displayed an LC50 of 9.7 ×10⁻³ ppm. Besides, the ED50 in data set [2] amounted to 5.71 ×10⁻¹² ug/ml; in data set [3], 2.95 ×10⁻¹² ug/ml; in data set [4], 2.2 ×10⁻⁸ ug/ml.
In data set [1], `COc1cccc2c1C(=O)c1c(O)c3c(c(O)c1C2=O)C[C@@](O)(C(=O)CO)C[C@@H]3O[C@H]1C[C@H](N)[C@H](O)[C@H](C)O1` [DOXORUBICIN] yielded an LC50 of 8 ×10⁻² ppm. The EC50 in data set [2] amounted to 0.00178 µg/mL (≈ 0.00327 µM); in data set [3] it was 0.17 µg/mL (≈ 0.313 µM); in data set [4] it was 0.00428 µg/mL (≈ 0.00787 µM); in data set [5], 0.00178 µg/mL (≈ 0.00327 µM); in data set [6], 0.0189 µg/mL (≈ 0.0348 µM); in data set [7], 0.00243 µg/mL (≈ 0.00447 µM).
On to `CCCCCCCCCCC(O)C1CCC(C2CCC(C(O)CCCCCCCC[C@H](O)CC3=C[C@@H](C)OC3=O)O2)O1` (stereo partly drawn) [ASIMICIN], for which the ED50 is on record as 8.43 ×10⁻⁴ ug/ml in data set [2] and below 1 ×10⁻¹² ug/ml in data set [4]. Besides, the EC50 in data set [3] amounted to 0.852 µg/mL (≈ 1.43 µM).
With `CCCCCCCCCC[C@@H](O)[C@H]1CC[C@H]([C@H]2CC[C@H]([C@H](O)CCCC[C@H](O)CCCCC[C@@H](O)CC3=C[C@H](C)OC3=O)O2)O1`, the LC50 in data set [1] is reported as 4.3 ×10⁻¹ ppm. The EC50 in data set [2] was 0.673 µg/mL (≈ 1.05 µM); in data set [3], 0.327 µg/mL (≈ 0.512 µM); in data set [4], 0.00758 µg/mL (≈ 0.0119 µM); in data set [5], above 1 µg/mL; in data set [6], 0.527 µg/mL (≈ 0.825 µM); in data set [7], above 1 µg/mL.
In the case of `CCCCCCCCCC[C@@H](O)[C@H]1CC[C@H]([C@H]2CC[C@H]([C@H](O)CCCC[C@H](O)CCCCCCCC3=C[C@H](C)OC3=O)O2)O1` [ASIMIN], the LC50 in data set [1] worked out at 4.6 ×10⁻³ ppm. Further, the ED50 in data set [2] is listed as 7.99 ×10⁻⁹ ug/ml; in data set [3], 9.57 ×10⁻⁹ ug/ml; in data set [4] it was below 1 ×10⁻¹² ug/ml.
For `CCCCCCCCCC[C@H](O)[C@H]1CC[C@H]([C@H]2CC[C@H]([C@H](O)CCCCCCCCCCCCC3=C[C@H](C)OC3=O)O2)O1` [BULLANIN], the LC50 in data set [1] is 6 ×10⁻³ ppm. The ED50 in data set [2] turned out to be 3.11 ×10⁻¹⁴ ug/ml; in data set [3] it was 3.22 ×10⁻¹⁴ ug/ml; in data set [4], 4.77 ×10⁻¹⁴ ug/ml.
As for `CCCCCCCCCC[C@@H](O)[C@H]1CC[C@@H]([C@H]2CC[C@H]([C@H](O)CCCCCCCCCC[C@@H](O)CC3=C[C@H](C)OC3=O)O2)O1` [TRILOBACIN], the LC50 in data set [1] was found to be 8.7 ×10⁻³ ppm. The ED50 in data set [2] is 8.02 ×10⁻⁴ ug/ml; in data set [4] it was below 1 ×10⁻¹² ug/ml. Moreover, the EC50 in data set [3] was 0.339 µg/mL (≈ 0.544 µM).
